From patent US4436732A, “Medicated compound for treating diseases infected by virus of the herpes group” (priority 1981, dated 1984)

Legend:
[1] = neurotropic activity: influence upon the somnific effects of hexenal or chloralhydrate; assay type: in vivo; conditions: per os, 1, 10 and 100 mg/kg
Protocol: The neurotropic activity of the active principle is assessed through its influence upon the somnific effects of hexenal or chloralhydrate. The substance is introduced per os in the doses of 1, 10 and 100 mg/kg.

[2] = effect on the intensity of bile secretion, acute tests; assay type: in vivo, cats; conditions: 20 and 50 mg/kg
Source text: In acute tests on cats the effect of the active principle on the intensity of bile secretion has been studied.

[3] = tested on: herpetic encephalitis (HV); assay: experimental virus model of herpetic encephalitis of white mice; assay type: in vivo; conditions: for Average life span: control 4.78 ± 0.46; for Life span: control 12.7 ± 2.6; for Survival, %: control 70
Protocol: The chemotherapeutic effect of the active principle and the pharmaceutical composition on the whole has been studied on an experimental virus model of herpetic encephalitis of white mice. In the experiments more than 1,500 animals were used. To obtain the experimental encephalitis, white mice weighing 8-10 g have been infected intracerebrally. Prior to the infection the animal head skin is smeared with iodine, then ten-times dilutions of the virus-containing liquid in the volume of 0.03 ml are injected by means of a tuberculin syringe into the supraorbital area near the front median line to a depth of 1-2 mm directly into the brain. 3 to 7 days thereafter in the animals there were observed the disease signs (excitation, coordination disturbance, adynamia, paresis and paralysis) which were rapidly intensified and terminated in death. The experiments were assessed by the animal survival (in percent) and by the average life span of the test animals as compared to the control.
For treatment purposes the active principle or the medicated compound in the form of tablets is administered to the infected animals per os by means of a gastric tube as an aqueous suspension in the volume of 0.5 ml in doses of 20 to 500 mg/kg of the body weight 1 or 2 times per day. The tests have been carried out according to three schemes. In the first scheme, in order to preliminarily saturate the animal's organism with the active principle or the preparation were administered to the animals 1-2 days before the infection (preventive test). In the second scheme, to reveal the therapeutic effect of the active principle or the pharmaceutical composition, the compositions were introduced on the infection day and one or two days after the infection. In the third scheme (treatment-prophylaxis) the active principle or the medicated compound is administered the day before the infection or on the infection day, in both cases the treatment of the animal is continued for 5 to 7 days after the infection.
The most advantageous chemotherapeutic effect of the active principle or the pharmaceutical composition is manifested under the conditions of the treatment-prophylaxis application (third scheme).

[4] = solubility of the active principle; assay type: physicochemical
Source text: The active principle is an individual substance of the xanthone nature (mangiferin euxantogen) of the formula C19 H18 O11. […] This compound has not been hitherto used in the medicine.

[5] = tested on: HV (virus of the herpes group); assay: antiviral properties in vitro in a culture of cells of fibroblasts of a chicken embryo (virus-suppressing effect, cytopathogenic effect); assay type: cell-based; conditions: 10 μg/ml; 100 TCD50 HV
Protocol: The study of antiviral properties of the active principle has been carried out in in vitro experiments in a culture of cells of fibroblasts of a chicken embryo following a commonly employed procedure for primary screening of antiviral preparations. Cells are grown in flasks or test-tubes on the nutrient medium 199 with the addition of 5 to 10 vol.% of cattle serum. Then, for the contact of the virus with cells, into the flasks a virus-containing material is added in doses of 1, 10, 100 and 1,000 TCD50. […] Flasks or test-tubes are then subjected to thermosetting at the temperature of 37° C. The virus-suppressing effect is determined for 5 days by way of comparison of the presence of cytopathogenic effect in the control and test flasks and test-tubes. As the control use is made of: control of the single layer of cells, the control of the active principle without virus and the control of the virus without the active principle.

[6] = cardiorhythmic effect on the aconitine model of arrhythmia; assay type: in vivo, rat; conditions: intravenous, 10 and 50 mg/kg
Protocol: The cardiorhythmic effect of the active principle has been studied on the rat's aconitine model of arrhythmia upon its intravenous administration in the doses of 10 and 50 mg/kg.

[7] = antidiabetic effect: glucose in blood under alimentary carbohydrate load; assay type: in vivo, rabbits; conditions: per os
Protocol: To reveal the antidiabetic effect of the active principle, its effect on the content of glucose in rabbit's blood under the conditions of alimentary carbohydrate load has been studied. The active principle is administered in doses of 50 and 100 mg/kg once per os through a tube in a 1% starch paste. The experiment scheme is the following: the content of glucose in blood is determined in rabbit's blood on an empty stomach, and 40 minutes thereafter the content of glucose is again determined in blood. Afterwards, glucose is administered to the rabbits at the rate of 1.5 g/kg and the content of glucose in blood is determined 15, 30, 45, 60, 90 and 120 minutes after the administration thereof.

[8] = tested on: vessels of an isolated rabbit's ear; assay: vasodilative effect on vessels of an isolated rabbit's ear
Source text: The cardiological effect of the active principle has been studied in experiments on an isolated cat's heart; the effect on electrocardiographic characteristics has been studied in experiments on rabbits; the vasodilative effect--on vessels of an isolated rabbit's ear; the spasmolytic effect--on acetylcholine and barium spasms of smooth muscles of an isolated section of a rat's small intestine.

[9] = effect on characteristics of blood coagulation; assay type: in vivo, rabbits; conditions: per os, 50 mg/kg, during 4 hours
Protocol: The study of the effect of the active principle on certain characteristics of blood coagulation has been carried out on 5 rabbits. The compound is administered per os in the dose of 50 mg/kg as a suspension in a 2% starch paste. Blood has been examined prior to the administration and during 4 hours after a single-time administration of the suspension; determined are: blood plasma recalcification, thrombin time, thrombelastographic characteristics and thrombocyte concentration.

[10] = once a day, 0.04 mg/mice, P above 0.5
[11] = once a day, 0.2 mg/mice, P above 0.25
[12] = once a day, 1 mg/mice, P above 0.25
[13] = once a day, 5 mg/mice, P above 0.5
[14] = two times a day, 0.04 mg/mice, P above 0.1
[15] = two times a day, 0.2 mg/mice, P below 0.05
[16] = two times a day, 1 mg/mice, P below 0.05
[17] = two times a day, 5 mg/mice, P above 0.1

For `O=c1c2cc(O)c(O)cc2oc2cc(O)c([C@@H]3O[C@H](CO)[C@@H](O)[C@H](O)[C@H]3O)c(O)c12` [active principle, 2-C-β-D-glucopyranosyl-1,3,6,7-tetraoxyxanthone], the “effect on duration of sleep caused by chloralhydrate” value [1] was “no substantial effect”, the “effect on duration of sleep caused by hexenal” value [1] was “no substantial effect” and the bile secretion intensity [2] was “does not increase”. The chemotherapeutic effect ([3]; administration in maximum shortest time of the infection (Table 2)) was “highest”, the chemotherapeutic effect ([3]; administration two times a day (Table 1)) was “highest, statistically certain chemotherapeutic effect” and the “chemotherapeutic effect (time of death vs control)” value ([3]; first two schemes (preventive; therapeutic), per os) was “impossible to reveal statistically certain chemotherapeutic effect”. For the same molecule, the “Average life span” value ([3]; on the infection day, 1 mg/mice, P above 0.25) was 5.16 ± 0.91 days, the “Average life span” value ([3]; on the infection day, 2 mg/mice, P above 0.5) was 5.0 ± 0.56 days and the “Average life span” value ([3]; on the infection day, 5 mg/mice, P below 0.05) was 6.41 ± 0.71 days. The “Life span” value [3, 10] was 13.3 ± 2.5 days, the “Survival, %” value [3, 10] was 80% and the “Life span” value [3, 11] was 14.0 ± 2.3 days. For the same molecule, the “Survival, %” value [3, 11] was 90%, the “Life span” value [3, 12] was 14.0 ± 2.2 days and the “Survival, %” value [3, 12] was 90%. For the same molecule, the “Life span” value [3, 13] was 13.1 ± 2.7 days, the “Survival, %” value [3, 13] was 70% and the “Average life span” value ([3]; one day before infection, 1 mg/mice, P 0.05) was 5.6 ± 0.82 days. For the same molecule, the “Average life span” value ([3]; one day before infection, 2 mg/mice, P below 0.05) was 6.05 ± 0.83 days, the “Average life span” value ([3]; one day before infection, 5 mg/mice, P below 0.05) was 6.13 ± 1.04 days and the “Life span” value [3, 14] was 14.1 ± 0.9 days. The “Survival, %” value [3, 14] was 90%, the “Life span” value [3, 15] was 15.0 days and the “Survival, %” value [3, 15] was 100%. The “Life span” value [3, 16] was 15.0 days, the “Survival, %” value [3, 16] was 100% and the “Life span” value [3, 17] was 14.3 ± 2.5 days. For the same molecule, the “Survival, %” value [3, 17] was 90%, the solubility in chloroform ([4]; chloroform) was “insoluble” and the solubility in ethanol ([4]; ethanol) was “sparingly soluble”. For the same molecule, the “solubility in ethyl ether” value ([4]; ethyl ether) was “insoluble”, the solubility in water ([4]; water) was “insoluble” and the mutagenous activity (mutagenous activity) was “no mutagenous activity”. For the same molecule, the virus-suppressing effect [5] was “high virus-suppressing effect”, the cardiorhythmic effect [6] was “no cardiorhythmic effect” and the “effect on the glycemic curve” value ([7]; 50 mg/kg) was “no effect”. The “increase of glucose tolerance” value ([7]; 100 mg/kg, uncertainly increased) was 14%, the vasodilative effect [8] was “no vasodilative” and the “effect on the blood coagulation process” value [9] was “does not substantially affect”.
